Measured values reported in patent publication US20250129104A1, “7H-PYRROLO[2,3-D]PYRIMIDINES AND PREPARATION AND USES THEREOF” (BioSplice Therapeutics, Inc., priority 2021, published 2025).

target: recombinant DYRK1A kinase (Homo sapiens (Human), UniProt Q13627); test: DYRK1A kinase assay (Ser/Thr 18 peptide Z-lyte FRET assay); format: biochemical; settings: DYRK1A kinase activity; 15 μM ATP, 1 h room temperature; method text calls the value IC50
Procedure, shortened: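 FRET Z-lyte read-out (coumarin/fluorescein ratio, % phosphorylation) after 1 h development; IC50 from non-linear curve fit. Reaction: 0.25 μg/mL recombinant human DYRK1A, Ser/Thr 18 peptide 4 μM, ATP 15 μM, compound in 11-point 1:3 series from 10 μM, 1 h, room temperature, duplicate wells.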

Row | SMILES | EC50
1 | Cc1nc(OCC2CCN(C)CC2)c2c(-c3ccc4ncccc4c3)c[nH]c2n1 [Compound 1899, 6-(2-Methyl-4-((1-methylpiperidin-4-yl)methoxy)-7H-pyrrolo[2,3-d]pyrimidin-5-yl)quinoline] | 18.6 nM
2 | CC(C)(C)CNc1ncc2c(-c3ccc4nccnc4c3)c[nH]c2n1 [Compound 1911, N-Neopentyl-5-(quinoxalin-6-yl)-7H-pyrrolo[2,3-d]pyrimidin-2-amine] | 117 nM
3 | CN1CCC(Nc2ncc3c(-c4ccc5nccnc5c4)c[nH]c3n2)CC1 [Compound 1932, N-(1-Methylpiperidin-4-yl)-5-(quinoxalin-6-yl)-7H-pyrrolo[2,3-d]pyrimidin-2-amine] | 12.5 nM
4 | CC(C)(F)CNc1ncc2c(-c3ccc4ncncc4c3)c[nH]c2n1 [Compound 1956, N-(2-Fluoro-2-methylpropyl)-5-(quinazolin-6-yl)-7H-pyrrolo[2,3-d]pyrimidin-2-amine] | 11.9 nM
5 | CN1CCN(c2ncnc3ccc(-c4c[nH]c5nc(N)ncc45)cc23)CC1 [Compound 1986, 5-(4-(4-Methylpiperazin-1-yl)quinazolin-6-yl)-7H-pyrrolo[2,3-d]pyrimidin-2-amine] | 41.6 nM
6 | CN1CCN(c2ncnc3ccc(-c4c[nH]c5nc(C6CC6)ncc45)cc23)CC1 [Compound 1987, 6-(2-Cyclopropyl-7H-pyrrolo[2,3-d]pyrimidin-5-yl)-4-(4-methylpiperazin-1-yl)quinazoline] | 70.4 nM
7 | CN1CCC(Oc2cnc3ccc(-c4c[nH]c5nc(N)ncc45)cc3n2)CC1 [Compound 1994, 5-(3-((1-Methylpiperidin-4-yl)oxy)quinoxalin-6-yl)-7H-pyrrolo[2,3-d]pyrimidin-2-amine] | 13.8 nM
8 | CN1CCN(c2cc(Nc3ncc4c(-c5ccn6ncc(-c7cccnc7)c6c5)c[nH]c4n3)ccn2)CC1 [Compound 2031, N-(2-(4-methylpiperazin-1-yl)pyridin-4-yl)-5-(3-(pyridin-3-yl)pyrazolo[1,5-a]pyridin-5-yl)-7H-pyrrolo[2,3-d]pyrimidin-2-amine] | 12.8 nM
9 | CNc1ncc2c(-c3ccn4ncc(C(=O)N5CCN(C)CC5)c4c3)c[nH]c2n1 [Compound 2032, (5-(2-(Methylamino)-7H-pyrrolo[2,3-d]pyrimidin-5-yl)pyrazolo[1,5-a]pyridin-3-yl)(4-methylpiperazin-1-yl)methanone] | 58.8 nM
10 | FC(F)(F)O[C@H]1CC[C@@H](Nc2ncc3c(-c4ccn5nccc5c4)c[nH]c3n2)CC1 [Compound 2104, 5-(Pyrazolo[1,5-a]pyridin-5-yl)-N-(cis-4-(trifluoromethoxy)cyclohexyl)-7H-pyrrolo[2,3-d]pyrimidin-2-amine] | 690 nM
11 | CCO[C@H]1CC[C@@H](Nc2ncc3c(-c4ccc5nnn(C)c5c4)c[nH]c3n2)CC1 [Compound 2143, N-(cis-4-Ethoxycyclohexyl)-5-(1-methyl-1H-benzo[d][1,2,3]triazol-6-yl)-7H-pyrrolo[2,3-d]pyrimidin-2-amine] | 9.9 nM
12 | CCO[C@H]1CC[C@@H](Nc2ncc3c(-c4ccn5nccc5n4)c[nH]c3n2)CC1 [Compound 2162, N-(cis-4-Ethoxycyclohexyl)-5-(pyrazolo[1,5-a]pyrimidin-5-yl)-7H-pyrrolo [2,3-d]pyrimidin-2-amine] | 8.5 nM
13 | [2H]C([2H])([2H])O[C@H]1CC[C@@H](Nc2ncc3c(-c4ccc5nccnc5c4)c[nH]c3n2)CC1 [Compound 2173, N-(cis-4-(Methoxy-d3)cyclohexyl)-5-(quinoxalin-6-yl)-7H-pyrrolo[2,3-d]pyrimidin-2-amine] | 10.5 nM
14 | COC[C@@H](C)Nc1nc(OC)c2c(-c3ccc4nccn4c3)c[nH]c2n1 [Compound 2175, (R)-5-(Imidazo[1,2-a]pyridin-6-yl)-4-methoxy-N-(1-methoxypropan-2-yl)-7H-pyrrolo[2,3-d]pyrimidin-2-amine] | 74.9 nM
15 | CCOc1nc(N[C@H](C)C(F)(F)F)nc2[nH]cc(-c3ccc4nccn4c3)c12 [Compound 2177, (R)-4-Ethoxy-5-(imidazo[1,2-a]pyridin-6-yl)-N-(1,1,1-trifluoropropan-2-yl)-7H-pyrrolo[2,3-d]pyrimidin-2-amine] | 10.3 nM

These reach a lower EC50. Values come first.

Row | EC50 | SMILES
16 | 8 nM | CO[C@H]1C[C@@H](Nc2ncc3c(-c4ccc5ncccc5c4)c[nH]c3n2)C1 [Compound 2075, N-(cis-3-Methoxycyclobutyl)-5-(quinolin-6-yl)-7H-pyrrolo[2,3-d]pyrimidin-2-amine]
17 | 7.8 nM | c1cnc2cc(-c3c[nH]c4nc(NC5CCOCC5)ncc34)ccc2n1 [Compound 1934, 5-(Quinoxalin-6-yl)-N-(tetrahydro-2H-pyran-4-yl)-7H-pyrrolo[2,3-d]pyrimidin-2-amine]
18 | 7.5 nM | c1cnc2ccc(-c3c[nH]c4ncnc(N[C@H]5CC[C@H](N6CCOCC6)CC5)c34)cc2c1 [Compound 1898, N-(trans-4-Morpholinocyclohexyl)-5-(quinolin-6-yl)-7H-pyrrolo[2,3-d]pyrimidin-4-amine]
19 | 6.8 nM | C[C@@H](Nc1nc(OCCO)c2c(-c3ccc4nccn4c3)c[nH]c2n1)C(F)(F)F [Compound 2178, (R)-2-((5-(imidazo[1,2-a]pyridin-6-yl)-2-((1,1,1-trifluoropropan-2-yl)amino)-7H-pyrrolo[2,3-d]pyrimidin-4-yl)oxy)ethan-1-ol]
20 | 6 nM | C[C@@H](Nc1ncc2c(-c3ccc4nccnc4c3)c[nH]c2n1)C(F)(F)F [Compound 1916, (R)-5-(Quinoxalin-6-yl)-N-(1,1,1-trifluoropropan-2-yl)-7H-pyrrolo[2,3-d]pyrimidin-2-amine]
21 | 5.7 nM | CO[C@H]1C[C@@H](Nc2ncc3c(-c4ccc5nccnc5c4)c[nH]c3n2)C1 [Compound 2076, N-(cis-3-Methoxycyclobutyl)-5-(quinoxalin-6-yl)-7H-pyrrolo[2,3-d]pyrimidin-2-amine]
22 | 5.1 nM | Fc1cc(-c2c[nH]c3nc(N[C@H]4CC[C@@H](OCC(F)F)CC4)ncc23)cn2ccnc12 [Compound 2181, N-(cis-4-(2,2-Difluoroethoxy)cyclohexyl)-5-(8-fluoroimidazo[1,2-a]pyridin-6-yl)-7H-pyrrolo[2,3-d]pyrimidin-2-amine]
23 | 5 nM | [2H]C([2H])([2H])O[C@H]1CC[C@@H](Nc2ncc3c(-c4ccc5nnn(C)c5c4)c[nH]c3n2)CC1 [Compound 2172, N-(cis-4-(Methoxy-d3)cyclohexyl)-5-(1-methyl-1H-benzo[d][1,2,3]triazol-6-yl)-7H-pyrrolo[2,3-d]pyrimidin-2-amine]
24 | 3.9 nM | [2H]C([2H])([2H])O[C@H]1CC[C@@H](Nc2ncc3c(-c4cc(F)c5nccn5c4)c[nH]c3n2)CC1 [Compound 2180, 5-(8-Fluoroimidazo[1,2-a]pyridin-6-yl)-N-(cis-4-(methoxy-d3)cyclohexyl)-7H-pyrrolo[2,3-d]pyrimidin-2-amine]
25 | 3.3 nM | CN1CCN(c2ccc(Nc3ncc4c(-c5ccc6nccnc6c5)c[nH]c4n3)cn2)CC1 [Compound 1938, N-(6-(4-Methylpiperazin-1-yl)pyridin-3-yl)-5-(quinoxalin-6-yl)-7H-pyrrolo [2,3-d]pyrimidin-2-amine]
26 | 3.1 nM | OCCO[C@H]1CC[C@@H](Nc2ncc3c(-c4cc(F)c5nccn5c4)c[nH]c3n2)CC1 [Compound 2182, 2-((cis-4-((5-(8-Fluoroimidazo[1,2-a]pyridin-6-yl)-7H-pyrrolo[2,3-d]pyrimidin-2-yl)amino)cyclohexyl)oxy)ethan-1-ol]
27 | 3 nM | CCO[C@H]1CC[C@@H](Nc2ncc3c(-c4ccc5nccn5n4)c[nH]c3n2)CC1 [Compound 2145, N-(cis-4-Ethoxycyclohexyl)-5-(imidazo[1,2-b]pyridazin-6-yl)-7H-pyrrolo [2,3-d]pyrimidin-2-amine]
28 | 2.9 nM | CN1CCN(c2ccc(CNc3ncc4c(-c5ccc6ncncc6c5)c[nH]c4n3)cn2)CC1 [Compound 1982, N-((6-(4-Methylpiperazin-1-yl)pyridin-3-yl)methyl)-5-(quinazolin-6-yl)-7H-pyrrolo[2,3-d]pyrimidin-2-amine]
29 | 2.9 nM | CO[C@H]1C[C@@H](Nc2ncc3c(-c4ccn5nccc5n4)c[nH]c3n2)C1 [Compound 2070, N-(cis-3-Methoxycyclobutyl)-5-(pyrazolo[1,5-a]pyrimidin-5-yl)-7H-pyrrolo [2,3-d]pyrimidin-2-amine]
30 | 2.4 nM | CCO[C@H]1CC[C@@H](Nc2ncc3c(-c4cc(F)c5nccn5c4)c[nH]c3n2)CC1 [Compound 2129, N-(cis-4-Ethoxycyclohexyl)-5-(8-fluoroimidazo[1,2-a]pyridin-6-yl)-7H-pyrrolo[2,3-d]pyrimidin-2-amine]
31 | 2.2 nM | C[C@]1(O)CC[C@@H](Nc2ncc3c(-c4cc(F)c5nccn5c4)c[nH]c3n2)CC1 [Compound 2179, cis-4-((5-(8-Fluoroimidazo[1,2-a]pyridin-6-yl)-7H-pyrrolo[2,3-d]pyrimidin-2-yl)amino)-1-methylcyclohexan-1-ol]
32 | 2.1 nM | COc1nc(N[C@H]2CC[C@@H](OCC(F)F)CC2)nc2[nH]cc(-c3ccc4nccn4c3)c12 [Compound 2176, N-(cis-4-(2,2-Difluoroethoxy)cyclohexyl)-5-(imidazo[1,2-a]pyridin-6-yl)-4-methoxy-7H-pyrrolo[2,3-d]pyrimidin-2-amine]
33 | 1.9 nM | CO[C@H]1C[C@@H](Nc2ncc3c(-c4ccc5nccn5n4)c[nH]c3n2)C1 [Compound 2053, 5-(Imidazo[1,2-b]pyridazin-6-yl)-N-(cis-3-methoxycyclobutyl)-7H-pyrrolo [2,3-d]pyrimidin-2-amine]
34 | 1.6 nM | COc1nc(N[C@H](C)C(F)(F)F)nc2[nH]cc(-c3ccc4nccn4c3)c12 [Compound 2174, (R)-5-(Imidazo[1,2-a]pyridin-6-yl)-4-methoxy-N-(1,1,1-trifluoropropan-2-yl)-7H-pyrrolo[2,3-d]pyrimidin-2-amine]
35 | 1.5 nM | [2H]C([2H])([2H])O[C@H]1CC[C@@H](Nc2ncc3c(-c4ccc5nccn5n4)c[nH]c3n2)CC1 [Compound 2171, 5-(Imidazo[1,2-b]pyridazin-6-yl)-N-(cis-4-(methoxy-d3)cyclohexyl)-7H-pyrrolo[2,3-d]pyrimidin-2-amine]
